Measurements published in patent US11020405B2, “Method for prevention or treatment of diabetic complications” (KANGWON NATIONAL UNIVERSITY UNIVERSITY-INDUSTRY COOPERATION …, priority 2017, dated 2021).

Tests used:
[1] = system: retinal vessels of diabetic mice; test: Fluorescein angiography for mouse model (retinal vascular leakage); type: in vivo, C57BL/6 mice; conditions: intravitreal 2 μL of 2 mM midazolam, 2 μM cystamine or 500 mM MDC (FIGS. 16, 17)
TGase = test: Identification of receptor of midazolam through TGase activity analysis; type: cell-based, human; conditions: HRECs
Description: With reference to FIG. 11A, the HRECs of Test Example 1 were subjected to the respective treatments below, cultured for 2 hr, treated with 1 mM 5-(biotinamido)pentylamine, incubated for 1 hr, fixed with 3.7% formaldehyde, treated with 0.2% triton X-100, treated with a blocking solution containing 138 mM NaCl, 0.1% Tween 20 and 2% BSA dissolved in a 20 mM Tris (pH 7.6) buffer, incubated for 30 min, incubated with FITC-conjugated streptavidin (1:200, v/v) for 1 hr, and then measured using confocal microscopy to thus determine the fluorescence intensity of single cells.
As will be described below, flumazenil was used as a GABAA receptor antagonist and PK11195 was used as a TSOP receptor antagonist.
With reference to FIG. 11B, the HRECs of Test Example 1 were treated with 0 μM, 0.01 μM, 0.1 μM, 1 μM, 10 μM, 20 μM, and 50 μM flumazenil and 0 μM, 0.01 μM, 0.1 μM, 1 μM, 3 μM, 10 μM, and 30 μM PK11195, cultured for 1 hr, treated with 20 μM midazolam, cultured for 30 min, treated with 10 ng/ml VEGF, incubated for 10 min, treated with 1 mM 5-(biotinamido)pentylamine, incubated for 1 hr, fixed with 3.7% formaldehyde, treated with 0.2% triton X-100, treated with a blocking solution containing 138 mM NaCl, 0.1% Tween 20 and 2% BSA dissolved in a 20 mM Tris (pH 7.6) buffer, incubated for 30 min, incubated with FITC-conjugated streptavidin (1:200, v/v) for 1 hr, and then measured using confocal microscopy to thus determine the fluorescence intensity of single cells.

[2] = Body weight and blood glucose monitoring in diabetic mice; type: in vivo, C57BL/6 mice
Description: (§1) FIGS. 19A and 19B show the preventive effects of midazolam against hyperglycemia-induced endothelial apoptosis in the aortic endothelium of diabetic mice. Six-week-old male C57BL/6 mice were administered with streptozotocin (150 mg/kg body weight) to give diabetic mouse models. One week after streptozotocin injection, diabetic mice were administered midazolam (10 mg/kg) by intraperitoneal injection daily for 14 days. The body weight of mice were measure in normal (20.7±0.1 g), diabetic (17.1±0.1 g), and midazolam supplemented diabetic mice (17.0±0.3 g). Blood glucose levels were also monitored in normal (124.0±12.0 mg/dL), diabetic (509.0±1.0 mg/dL), and midazolam supplemented diabetic mice (515.7±3.4 mg/dL). Aorta of mice were dissected and cut longitudinally to expose the endothelium. And then aortic segments were fixed for 15 min with 1% (w/v) paraformaldehyde in PBS, followed by treatment for 30 min with 70% (v/v) ethanol on ice. Apoptotic cells were stained by terminal deoxynucleotidyl transferase dUTP nick end labeling (TUNEL) with nuclear counterstaining with DAPI and visualized by confocal microscopy in the aortic endothelium. Representative images of endothelial apoptosis in aorta are shown in additional FIG. 19A. Scale bar, 100 μm. The results of endothelial apoptosis quantitatively analyzed by measurement of TUNEL staining in the aorta are shown in additional FIG. 19B (n=4 for normal and diabetic, n=6 for diabetic+Midazolam).
FIGS. 20A and 20B show the preventive effects of midazolam against hyperglycemia-induced renal vascular leakage in diabetic mice. Six-week-old male C57BL/6 mice were administered with streptozotocin (150 mg/kg body weight) to give diabetic mouse models. Two weeks after streptozotocin injection, diabetic mice were administered 10 mg/kg midazolam by intraperitoneal injection daily for 2 days, and vascular leakage was investigated. The body weight of mice were measure in normal (19.9±0.3 g), diabetic (17.7±0.3 g), and midazolam supplemented diabetic mice (17.7±0.3 g). Blood glucose levels were also monitored in normal (123.5±6.5 mg/dL), diabetic (505.0±89.0 mg/dL), and midazolam supplemented diabetic mice (500.3±63.3 mg/dL). The mice were anesthetized with 3% isoflurane, and 1.25 mg of FITC-dextran was injected into the right ventricle of each mouse and allowed to circulate for 5 min. […] The results of vascular leakage quantitatively analyzed by measuring the fluorescence intensity of FITC-dextran in the kidneys are shown in additional FIG. 20B. […]
FIGS. 21A and 21B show the preventive effects of midazolam against hyperglycemia-induced pulmonary vascular leakage in diabetic mice. […] Blood glucose levels were also monitored in normal (123.5±6.5 mg/dL), diabetic (505.0±89.0 mg/dL), and midazolam supplemented diabetic mice (500.3±63.3 mg/dL). […]

[3] = system: aortic endothelium of diabetic mice; test: Hyperglycemia-induced endothelial apoptosis in aortic endothelium of diabetic mice (TUNEL); type: in vivo, C57BL/6 mice; conditions: midazolam 10 mg/kg intraperitoneal daily for 14 days (FIG. 19)
Description: as §1, with “Representative images of endothelial apoptosis in aorta are shown in additional FIG. 19A. Scale bar, 100 μm.” left out

In the case of Cc1ncc2n1-c1ccc(Cl)cc1C(c1ccccc1F)=NC2 [midazolam], the “retinal vascular leakage compared to normal mice” value [1] is reported as “vascular leakage was prevented”, the “TGase activity (VEGF-induced) compared to control” value (TGase; 20 μM midazolam 10 min then 10 ng/ml VEGF, no washing (FIG. 11A)) is reported as “no significant TGase activity increase was observed” and the “TGase activity (VEGF-induced, after washing)” value (TGase; 20 μM midazolam 30 min, washing with serum-free medium, then 10 ng/ml VEGF (FIG. 11A)) is reported as “TGase activity was increased”. It also gave a body weight ([2]; Test Example 15: midazolam supplemented diabetic mice, 10 mg/kg intraperitoneal daily for 14 days) of 17.0 ± 0.3 g, a body weight ([2]; Test Example 16: midazolam supplemented diabetic mice, 10 mg/kg intraperitoneal daily for 2 days) of 17.7 ± 0.3 g and a body weight ([2]; Test Example 17: midazolam supplemented diabetic mice, 10 mg/kg intraperitoneal daily for 2 days) of 17.6 ± 0.3 g. For the same compound, the weight of mice ([2]; Test Example 18: midazolam supplemented diabetic mice, 10 mg/kg intraperitoneal daily for 14 days, B16F10 cells) was 16.2 ± 0.5 g and the “hyperglycemia-induced endothelial apoptosis in aorta (TUNEL staining)” value [3] was “inhibited the hyperglycemia-induced apoptosis of diabetic aortas”.
